# Measurements published in ChEMBL document CHEMBL1201862, “PubChem BioAssay data set” (2004).
# The source made the active and inactive calls.
# How the values were obtained:
# HEK293 [1] = assay: HEK cell cytotoxicity by LDH release, dose response, cytotoxicity control for IDE activator project, fluorescence, HEK cells (AID 588440); assay type: functional, cell-based; details: Homo sapiens;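 further: cytotoxicity by LDH release measuring loss of membrane integrity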
# Melanocortin receptor 4 = Melanocortin receptor 4 (Homo sapiens, UniProt P32245); assay type: functional, cell-based;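 further: Cell-based assay with luminescence read-out, confirmatory dose-response testing for agonist activity of biased ligands at MC4R; human U2OS cells with tagged receptor and beta-arrestin; potency of agonists that increase receptor coupling to beta-arrestin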
# [2] = HepG2 cell cytotoxicity, dose response, cytotoxicity control for non-replicating M. tuberculosis project (AID 489018); assay type: functional; details: Mycobacterium tuberculosis
# Insulin-degrading enzyme [3] = target: T1, Insulin-degrading enzyme (Homo sapiens, UniProt P14735); assay: activators of recombinant IDE enzyme, dose response, counter-screen for IDE activator project, biochemical, fluorescence polarization (AID 588681)
# T1 sequence (P14735 whole entry): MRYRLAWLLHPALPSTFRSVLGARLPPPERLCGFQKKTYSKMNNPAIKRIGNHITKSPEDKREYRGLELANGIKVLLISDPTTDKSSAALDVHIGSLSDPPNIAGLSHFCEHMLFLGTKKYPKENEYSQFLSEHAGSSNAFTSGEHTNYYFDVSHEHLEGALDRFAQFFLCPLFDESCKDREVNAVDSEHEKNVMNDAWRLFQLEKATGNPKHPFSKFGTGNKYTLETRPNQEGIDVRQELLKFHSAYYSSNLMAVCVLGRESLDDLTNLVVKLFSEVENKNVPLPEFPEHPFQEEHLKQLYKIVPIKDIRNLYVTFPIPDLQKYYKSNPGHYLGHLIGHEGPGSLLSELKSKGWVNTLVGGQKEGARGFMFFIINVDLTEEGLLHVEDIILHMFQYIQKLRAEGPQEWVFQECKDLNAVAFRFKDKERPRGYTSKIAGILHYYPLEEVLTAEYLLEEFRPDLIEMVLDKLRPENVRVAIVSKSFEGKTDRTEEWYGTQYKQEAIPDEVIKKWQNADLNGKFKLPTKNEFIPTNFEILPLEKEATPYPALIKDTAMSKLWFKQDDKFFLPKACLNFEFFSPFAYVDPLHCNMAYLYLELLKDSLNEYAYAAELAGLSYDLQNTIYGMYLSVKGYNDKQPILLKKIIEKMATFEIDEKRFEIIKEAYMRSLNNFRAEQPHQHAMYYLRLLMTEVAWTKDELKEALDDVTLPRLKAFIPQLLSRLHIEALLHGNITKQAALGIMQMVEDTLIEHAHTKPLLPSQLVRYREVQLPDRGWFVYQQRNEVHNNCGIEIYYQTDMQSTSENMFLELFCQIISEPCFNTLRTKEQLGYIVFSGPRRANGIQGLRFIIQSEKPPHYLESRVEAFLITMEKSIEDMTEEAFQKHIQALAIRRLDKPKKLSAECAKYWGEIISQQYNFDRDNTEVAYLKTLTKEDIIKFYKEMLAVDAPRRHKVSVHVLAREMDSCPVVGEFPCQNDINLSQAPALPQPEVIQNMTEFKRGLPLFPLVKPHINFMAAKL
# [4] = Vero E6 cell cytotoxicity, dose response, cytotoxicity control for non-replicating M. tuberculosis project, secondary assay (AID 492998); assay type: functional, VeroE6; details: Vero C1008
# Insulin-degrading enzyme [5] = target: T1, Insulin-degrading enzyme; assay: activators of endogenous IDE in HEK cells, dose response, cell-based, fluorescence polarization (AID 588439); assay type: functional
# X-box-binding protein 1 = target: T2, X-box-binding protein 1 (Homo sapiens, UniProt P17861); assay type: functional, Cricetulus griseus;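 further: confirmatory dose-response counter-screen serving a CHOP assay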
# T2 sequence (P17861 whole entry): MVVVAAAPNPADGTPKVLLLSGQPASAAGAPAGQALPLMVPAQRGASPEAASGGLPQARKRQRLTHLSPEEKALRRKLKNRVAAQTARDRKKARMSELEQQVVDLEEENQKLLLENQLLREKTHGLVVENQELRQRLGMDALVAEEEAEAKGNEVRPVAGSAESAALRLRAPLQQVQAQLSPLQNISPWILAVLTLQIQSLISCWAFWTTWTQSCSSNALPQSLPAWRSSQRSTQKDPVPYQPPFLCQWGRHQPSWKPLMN
# HEK293 [6] = assay: optical interference in Abeta FP readout, dose response, artefact control for IDE activator project, biochemical, fluorescence polarization (AID 588442); assay type: functional, cell-based; details: Homo sapiens
# cells = assay type: functional
# [7] = THP-1 cell cytotoxicity, dose response, cytotoxicity control for non-replicating M. tuberculosis project (AID 489025); assay type: functional
# [8] = HepG2 cell cytotoxicity, dose response, cytotoxicity control for Shn3 inhibitor project, CellTiter-Glo, cherry-picked (AID 624134); assay type: functional, cell-based
# Protein Wnt-3a = Protein Wnt-3a (Mus musculus, UniProt P27467); assay: Wnt3a-driven reporter signaling inhibition, dose response, selectivity assay for Gli-SUFU antagonist project, Wnt-LIGHT cells, luminescence (AID 651570); assay type: functional; details: read-out: IC50_Mean;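 further: Wnt-LIGHT reporter cells stimulated with conditioned medium from Wnt3a-producing cells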
# [9] = control 3'UTR Renilla luciferase suppression, dose response, counter-screen for Shn3 inhibitor project, cell-based, Clone20-Shn3RL, cherry-picked (AID 624133); assay type: functional
# [10] = Shn3 3'UTR reporter inhibitors, dose response, cell-based, Clone20 osteoblasts, firefly luciferase, cherry-picked (AID 624132); assay type: functional;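 further: firefly luciferase luminescence from reporter carrying the Shn3 3'UTR in osteoblasts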
# [11] = target: T3, Corticotropin-releasing factor receptor 2/Corticotropin-releasing factor-binding protein (Homo sapiens, UniProt P24387+Q13324); assay: activators of CRF receptor 2 with binding protein – uHTS hits, confirmation (AID 602473); assay type: functional; details: read-out: EC50_Mean
# T3 sequence (Q13324 whole entry): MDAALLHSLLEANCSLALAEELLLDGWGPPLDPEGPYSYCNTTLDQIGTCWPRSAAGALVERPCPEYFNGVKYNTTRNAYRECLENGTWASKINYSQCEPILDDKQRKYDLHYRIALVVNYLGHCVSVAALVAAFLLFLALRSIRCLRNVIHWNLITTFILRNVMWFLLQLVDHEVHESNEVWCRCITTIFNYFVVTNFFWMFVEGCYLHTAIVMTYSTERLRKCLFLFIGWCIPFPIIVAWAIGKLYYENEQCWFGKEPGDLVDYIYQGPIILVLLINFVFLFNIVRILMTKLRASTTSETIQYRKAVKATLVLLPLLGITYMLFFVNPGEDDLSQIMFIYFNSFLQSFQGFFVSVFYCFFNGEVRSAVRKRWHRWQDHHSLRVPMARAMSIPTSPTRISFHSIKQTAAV
# T3 sequence (P24387 whole entry): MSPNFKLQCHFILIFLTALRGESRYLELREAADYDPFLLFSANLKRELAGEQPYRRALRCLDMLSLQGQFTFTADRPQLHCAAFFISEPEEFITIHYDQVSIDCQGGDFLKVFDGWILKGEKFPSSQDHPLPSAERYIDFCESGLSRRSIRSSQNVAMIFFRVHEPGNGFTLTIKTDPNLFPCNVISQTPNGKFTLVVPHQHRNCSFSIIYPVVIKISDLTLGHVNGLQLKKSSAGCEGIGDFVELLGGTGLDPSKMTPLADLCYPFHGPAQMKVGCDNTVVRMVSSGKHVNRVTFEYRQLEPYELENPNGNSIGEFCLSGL
# [12] = CRF-BP/CRF-R2 complex antagonists, dose response, cell-based, uHTS hits, 384-well (AID 651639); assay type: functional, Homo sapiens; details: read-out: IC50_Mean
# [13] = target: T3, Corticotropin-releasing factor receptor 2/Corticotropin-releasing factor-binding protein; assay: Dose Response confirmation of uHTS hits for small molecule antagonists of the CRF-binding protein and CRF-R2 receptor complex.; assay type: functional; details: read-out: IC50_Mean
# [14] = target: T4, Low molecular weight phosphotyrosine protein phosphatase (Homo sapiens, UniProt P24666); assay type: functional; details: read-out: IC50_Mean
# T4 sequence (P24666 whole entry): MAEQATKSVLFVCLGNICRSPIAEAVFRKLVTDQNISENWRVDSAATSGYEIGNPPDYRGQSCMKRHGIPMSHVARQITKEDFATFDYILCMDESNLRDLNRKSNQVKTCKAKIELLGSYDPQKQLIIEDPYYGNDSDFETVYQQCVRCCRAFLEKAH
# [15] = target: T4, Low molecular weight phosphotyrosine protein phosphatase; assay type: functional; details: read-out: IC50_Mean; remark: listed apart in the source
# [16] = target: T5, ATP-dependent translocase ABCB1 (Homo sapiens, UniProt P08183); assay: ABCG2 efflux pump inhibitor potency, dose response, Ig-MXP3 cells, JC-1, flow cytometry, set 2 (AID 504566); assay type: functional; details: read-out: EC50_MICROM_;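 further: flow cytometry median green fluorescence of retained JC-1 dye; potency of efflux pump inhibition measured as rising substrate retention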
# [17] = target: T5, ATP-dependent translocase ABCB1; assay: ABCB1 efflux inhibitor potency, dose response, Jurkat-DNR cells, JC-1, flow cytometry, set 2 (AID 504569); assay type: functional; details: read-out: EC50_MICROM_;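 further: potency of pump inhibitors that raise cellular JC-1 green fluorescence up to the nicardipine level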
# T5 sequence (P08183 whole entry): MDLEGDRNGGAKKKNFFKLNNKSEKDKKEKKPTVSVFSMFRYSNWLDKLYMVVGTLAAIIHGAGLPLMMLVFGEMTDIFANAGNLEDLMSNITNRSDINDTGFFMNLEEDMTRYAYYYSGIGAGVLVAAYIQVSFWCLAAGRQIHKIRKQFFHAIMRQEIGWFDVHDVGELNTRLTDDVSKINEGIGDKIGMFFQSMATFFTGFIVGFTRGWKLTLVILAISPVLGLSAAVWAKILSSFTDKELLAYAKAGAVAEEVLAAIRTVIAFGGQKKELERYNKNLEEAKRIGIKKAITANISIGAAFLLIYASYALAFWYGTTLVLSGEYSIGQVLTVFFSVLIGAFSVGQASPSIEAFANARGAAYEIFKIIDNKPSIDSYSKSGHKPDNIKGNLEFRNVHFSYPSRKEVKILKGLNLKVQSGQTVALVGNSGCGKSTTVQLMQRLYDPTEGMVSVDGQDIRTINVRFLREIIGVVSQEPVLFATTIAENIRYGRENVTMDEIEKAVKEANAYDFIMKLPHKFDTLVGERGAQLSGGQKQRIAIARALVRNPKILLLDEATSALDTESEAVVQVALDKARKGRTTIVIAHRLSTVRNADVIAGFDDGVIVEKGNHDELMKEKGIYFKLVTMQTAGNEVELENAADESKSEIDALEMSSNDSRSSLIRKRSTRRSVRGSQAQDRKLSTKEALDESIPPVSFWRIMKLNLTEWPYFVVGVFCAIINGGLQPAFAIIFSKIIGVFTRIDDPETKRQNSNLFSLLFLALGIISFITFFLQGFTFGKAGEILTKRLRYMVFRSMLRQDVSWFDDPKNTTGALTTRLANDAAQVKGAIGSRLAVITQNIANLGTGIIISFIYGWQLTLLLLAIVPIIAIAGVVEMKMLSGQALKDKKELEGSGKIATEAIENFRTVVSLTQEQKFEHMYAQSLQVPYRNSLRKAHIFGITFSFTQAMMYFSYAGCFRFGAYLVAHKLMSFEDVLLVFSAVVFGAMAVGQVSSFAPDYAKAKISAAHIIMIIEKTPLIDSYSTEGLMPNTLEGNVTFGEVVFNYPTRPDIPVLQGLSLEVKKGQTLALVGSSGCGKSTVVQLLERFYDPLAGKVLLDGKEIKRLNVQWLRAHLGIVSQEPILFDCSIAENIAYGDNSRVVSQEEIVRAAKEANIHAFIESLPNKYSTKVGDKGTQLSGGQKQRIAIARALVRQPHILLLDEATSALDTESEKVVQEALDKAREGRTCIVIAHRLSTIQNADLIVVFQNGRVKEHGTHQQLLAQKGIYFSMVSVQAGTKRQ
# Chain of Protein Wnt-3a (P27467 whole entry): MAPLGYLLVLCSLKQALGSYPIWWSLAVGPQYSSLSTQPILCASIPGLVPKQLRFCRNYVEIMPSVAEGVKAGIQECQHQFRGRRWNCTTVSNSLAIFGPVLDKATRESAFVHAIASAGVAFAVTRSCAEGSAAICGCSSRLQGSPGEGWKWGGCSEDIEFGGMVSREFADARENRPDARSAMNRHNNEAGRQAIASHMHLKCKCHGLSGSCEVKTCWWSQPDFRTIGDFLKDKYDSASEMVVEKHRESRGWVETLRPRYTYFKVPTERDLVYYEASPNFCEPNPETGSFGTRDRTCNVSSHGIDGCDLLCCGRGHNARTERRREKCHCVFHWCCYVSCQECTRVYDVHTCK
# Chain of Melanocortin receptor 4 (P32245 whole entry): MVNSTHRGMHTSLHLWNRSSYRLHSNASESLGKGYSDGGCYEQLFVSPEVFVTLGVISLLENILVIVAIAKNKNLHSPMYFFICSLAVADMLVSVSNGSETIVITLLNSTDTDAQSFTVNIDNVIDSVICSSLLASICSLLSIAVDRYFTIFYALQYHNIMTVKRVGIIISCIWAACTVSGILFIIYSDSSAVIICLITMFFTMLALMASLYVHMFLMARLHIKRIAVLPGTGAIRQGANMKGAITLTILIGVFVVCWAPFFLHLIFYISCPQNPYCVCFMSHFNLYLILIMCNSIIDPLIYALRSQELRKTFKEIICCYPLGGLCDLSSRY
smiles,measurement,setting,value
Cc1c(CN2CCC(CO)(CCOc3ccccc3)CC2)[nH]c2c(Cl)cccc12,IC50,HEK293 [1],22.8 µM (inactive)
same,EC50,Melanocortin receptor 4,> 89.2 µM (inactive)
same,CC50,[2],14.5 µM (active)
same,EC50,Insulin-degrading enzyme [3],> 54.7 µM (inactive)
same,CC50,[4],16.3 µM (active)
same,EC50,Insulin-degrading enzyme [5],14.3 µM (inactive)
same,Absolute IC50 (XBP1),X-box-binding protein 1,10 µM
same,EC50,HEK293 [6],> 54.7 µM (inactive)
same,IC50,cells,6.5 µM (active)
same,CC50,[7],12.4 µM (active)
C=CCOC(=O)c1[nH]c2c(c1C)C(=O)CC(c1cc(OC)c(OC)c(OC)c1)C2 (stereo unspecified),AC50,[8],53.5 µM (active)
same,IC50,Protein Wnt-3a,1.89 µM (active)
same,AC50,[9],1.28 µM (active)
same,AC50,[10],1.83 µM (active)
CCCOc1ccc(C(=O)N2CCN(c3ccc(NC(=O)CC)cc3Cl)CC2)cc1,EC50,[11],> 53 µM (inactive)
same,IC50,[12],16.3 µM (active)
same,IC50,[13],16 µM (active)
COc1ccc(CN(C)C(=O)c2cccc(NC(=O)CC3SC(N4CCCCC4)=NC3=O)c2)c(OC)c1 (stereo unspecified),IC50,Protein Wnt-3a,21.7 µM (inactive)
COc1ccccc1CNc1nc(NCc2cnc(C)cn2)c2sccc2n1,IC50,[14],4.31 µM (active)
same,IC50,[15],5.74 µM (active)
O=C(C1CCCCC1)N1CCN(c2cc(-c3ccccc3)nc3cc(-c4cccc(Cl)c4)nn23)CC1,EC50,[16],1.75 µM (active)
same,EC50,[17],1.71 µM (active)
O=C1C(=Cc2cn(-c3ccccc3)nc2-c2ccc(OCc3ccccc3F)cc2)SC(=S)N1CCS(=O)(=O)O,IC50,[14],4.12 µM (active)
same,IC50,[15],12.2 µM (active)
COc1ccc(-c2cc3nc(C)cc(N4CCN(C(=O)c5ccco5)CC4)n3n2)cc1,EC50,[16],1.52 µM (active)
same,EC50,[17],4.78 µM (active)
